In patent US11793792B2, “Composition for prevention and treatment of hair growth disorders” (GIULIANI S.P.A., priority 2018, dated 2023):

Tests used:
[1] = test system: Lef1; assay: LEF1 mRNA expression (RT-PCR) in Human Follicle Dermal Papilla Cells (HFDPC); format: cell-based; settings: 24 h incubation; for Lef1 fold of change mRNA expression: normalized to GAPDH, relative to untreated calibrator (vehicle = 1)
Excerpt: In the present test, Hair cell line (derma papilla cells) were used rather than human hair follicle, as in the experiment of Example 4.
We evaluated the stimulation of Lef1 (marker of hair growth) and we retested compound 1 and compound 5 and we use also included the compound WAY-316660, a relatively non-toxic specific antagonist of SFRP1, which has already been used for the treatment of osteoporosis, for its known hair growth promotion activity (Rif. Hawkshaw et al. Plos Biol, 2018; https://journals.plos.org/plosbiology/article?id=10.1371/journal.pbio.2003705).
Biological Model Human Follicle Dermal Papilla Cells (HFDPC)
The cell line was cultured in Follicle Dermal Papilla Cell medium in 25 cm^2 culture flasks at 37° C., 5% CO2. Every two days confluent cultures were splitted 1:3-1:6, after washing with PBS 1× (without Ca2+ and Mg2+), using Trypsin/EDTA and seed at 2-5·10^4 cell/cm^2, 37° C., 5% CO2.
The expression of LEF1 was investigated by RT-PCR. The analysis was performed according to the reported method (Gibson et al, 1996; Heid et al, 1996) using TaqMan Gene Expression Assay supplied by Applied Biosystems. Briefly, within a gene-specific PCR oligonucleotide primer pair, an oligonucleotide probe labelled with a reporter fluorescent dye (FAM) at the 50-end and a quencher fluorescent dye (TAMURA) at the 30-end was designed. When the probe was intact, the reporter dye emission was quenched. During the extension phase of the PCR cycle, the nucleolytic activity of the DNA polymerase cleaved the hybridization probe and released the reporter dye from the probe. Fluorescence intensity produced during PCR amplifications was monitored by a sequence detector directly in the reaction tube (“real time”). A computer algorithm compared the amount of reporter dye emission with the quenching dye emission and calculated the threshold cycle number (CT) when signals reached ten times the standard deviation of the baseline, from which the levels of the mRNAs transcribed from the various genes tested were obtained (Gibson et al, 1996).
Gene expression analysis involves four following step: • 1. Treatments of cells with active compounds for 24 h; • 2. RNA extraction; • 3. cDNA retro transcription; • 4. Quantitative RT-PCR; Day 1: Seed cells
When the cells (Human Follicle Dermal Papilla Cells) reached approximately 80% confluence, they were harvested with trypsin/EDTA and seeded at a density of 1×10^6 cells/ml into 12-well plates and then incubated at 37° C., 5% CO2 (24 h).
When the cells reached approximately 80% confluence, complete medium was removed; cells were washed once with PBS 1× and the incubated in Human Follicle Dermal Papilla Cells at 37° C., 5% CO2 for at least 24 h;
Compounds to be tested (WAY316606, 1, 5, 7, 17, 18, 20, 21, 24) were dissolved in DMSO and diluted at final concentration in Human Follicle Dermal Papilla Cells.
Cells were then incubated at 37° C., 5% CO2 for different 24 h.
Total RNAs were extracted from the cells using Tri Reagent (Thermo Fisher), that is a single, homogenous solution for the isolation of total RNA. This procedure is an improvement of the single-step method reported by (Chomczynski and Mackey, 1995) for total RNA isolation. Tri Reagent, a mixture of guanidine thiocyanate and phenol in a monophase solution, effectively dissolves DNA, RNA, and protein on homogenization or lysis of tissue sample and contains a unique combination of denaturants and RNase inhibitors and is used in a convenient, single-step disruption/separation procedure.
Total RNA, extracted and quantified, was amplified using the “PRIME SCRIPT RT reagent kit (Perfect Real time) (Takara).
For amplification we used the Real time PCR System Mx3000P (Stratagene) and each total RNA was amplified in duplicate.
The RT-PCR analysis was set, using TaqMan linear probes (Applied Biosystems). Those probes are the most widely used and published detection chemistry for qPCR applications. […]

[2] = test system: Lef1; assay: Lef1 gene expression (qRT-PCR) in human hair follicle organ culture; format: cell-based; settings: microdissected human anagen VI scalp hair follicles; 15 μM; treated 6 hours; normalized on GAPDH; vehicle = 1; N=8 HFs/group from 1 donor
Description: Evidence of the activity of compounds of the invention is provided by the expression of Lymphoid enhancer binding factor-1 (Lef1), which plays an important role in bulge stem cells cell growth and differentiation (International Journal of Medical Sciences 2013; 10 (6):738-746).
These products were reconstituted in DMSO (stock solution) and intermediate or working solutions were prepared diluting the stock or the intermediate solution in William's E medium. […]
RNA was extracted from hair follicles with RNeasy kit (Qiagen, USA), and reverse transcribed with Tetro cDNA synthesis kit (Bioline) according to manufacturer's instructions. qPCR was performed in QuantStudio3 (Thermo Fisher) with Taqman probe for Axin2 (Hs00610344_m1, Thermo Fisher), Lef1 (Hs01547250_m1, Thermo Fisher), b-actin (Hs01060665_g1, Life Technologies) and Gapdh (Hs02758991_g1, Thermo Fisher). Expression levels were calculated with the delta-delta CT method. […]

SMILES | effect on LEF1 mRNA expression / activity (in words) [1] | effect on LEF1 mRNA expression / activity (in words) ([1]; listed as 1) | Lef1 fold of change mRNA expression [1] | genic expression of Lef1 (mRNA), mean [2] | effect on LEF1 mRNA expression / activity (in words) ([1]; listed as 5)
COC(=O)c1c(NC(=O)CC2SC(=N)NC2=O)sc(C)c1C (centres unmarked) [Compound C1, 2-(2-(2-Imino-4-oxo-thiazolidin-5-yl)-acetylamino)-4,5-dimethyl-thiophene-3-carboxylic acid methyl ester] | more active | major induction of Lef1 | 8.43 | 3.425 | 
CCOC(=O)c1c(NC(=O)CC2SC(=N)NC2=O)sc(C)c1C (centres unmarked) [Compound C5, 2-(2-(2-Imino-4-oxo-thiazolidin-5-yl)-acetylamino)-4,5-dimethyl-thiophene-3-carboxylic acid ethyl ester] | more active |  | 6.05 | 6.134 | major induction of Lef1
CCOC(=O)c1c(NC(=O)CC2SC(=N)NC2=O)sc(Br)c1C (centres unmarked) [Compound C7] | more active |  | 2.46 |  | 
COC(=O)c1ccsc1NC(=O)CC1SC(=N)NC1=O (centres unmarked) [Compound C17] | more active |  | 2.52 |  | 
COC(=O)c1cc(-c2ccccc2)sc1NC(=O)CC1SC(=N)NC1=O (centres unmarked) [Compound C18] |  |  | 1.56 |  | 
CCOC(=O)c1c(NC(=O)CC2SC(=N)NC2=O)sc(C)c1-c1ccccc1 (centres unmarked) [Compound C20] |  |  | 1.39 |  | 
CCOC(=O)c1c(C2CC2)csc1NC(=O)CC1SC(=N)NC1=O (centres unmarked) [Compound C21] |  |  | 1.79 |  | 
N=C1NC(=O)C(CC(=O)Nc2scc(C3CCC3)c2C(N)=O)S1 (centres unmarked) [Compound C24] |  |  | 1.88 |  | 
O=S(=O)(NC1CCNCC1)c1cc(S(=O)(=O)c2ccccc2)ccc1C(F)(F)F [WAY-316606, reference compound] |  |  | 2.18 |  | 
